Data reported in patent US4873250A, “Antimicrobial compound and compositions particulary effective against candida albicans” (The University of Mississippi, priority 1988, dated 1989).
≈ marks a conversion by molar mass, not a printed value. Values belong to the compound of their own block, whether it stands above or below them.

Columns and labels:
Candida albicans B311 = assay: Minimum inhibitory concentration (MIC), twofold serial broth dilution assay, Candida albicans B311; format: cell-based; conditions: yeast nitrogen broth, 24 and 48 hours at 37°
Protocol: (§1) The method used to determine the minimum inhibitory concentration (MIC) of the inventive compound was a twofold serial broth dilution assay in yeast nitrogen broth. In addition to Candida albicans B311, the MIC values for onychine were also determined for two additional strains of Candida albicans: ATCC 10231 and a clinical isolate, designated WH. Also tested were Mycobacterium smegmatis 607, Bacillus subtilis, 6633, Cryptococcus neoformans 32264, Aspergillus flavus 9170, Aspergillus fumigatus 26934, and Trichophyton mentagrophytes 9972. The inventive compound was initally tested using a concentration of 100 μg/ml in the first tube. The compound was added to sterile Sabourauddextrose broth as a solution in DMSO. The inoculum for the MIC determination was prepared as described for qualitative evaluation. Using a calibrated sterile wire loop, 10μl of the 10^6 CFU/ml suspension of Candida albicans was used as inoculum for each tube. The MIC value was taken as the lowest concentration of compound that inhibited the growth of the test organisms after 24 and 48 hours of incubation at 37°. The antifungal agents amphotericin-B and ketoconazole were included as standards in each screen. The results of the MIC testing for various pathogenic agents is set out in Table I.

Candida albicans 10231 = assay: Minimum inhibitory concentration (MIC), twofold serial broth dilution assay, Candida albicans ATCC 10231; format: cell-based; conditions: ATCC10231, 24 and 48 hours at 37°
Protocol: as §1

Candida albicans [1] = assay: In vivo disseminated Candida albicans infection in mice, CFU recovered from the kidneys; set-up: species or system outbred mice; conditions: for % Reduction: kidney CFU versus vehicle control; for CFU/g × 10^6 (range): kidney
Protocol: In the in vivo testing of the invention onychine, outbred mice were used. A disseminated infection of Candida albicans in the test animals was achieved by intravenous injection of 10^6 CFU of the pathogen. The organism is rapidly cleared from the blood and most tissues, except the kidney which is the primary target organ for the disseminated infection in mice. It is known than an inoculum of 10^6 CFU will produce a disseminated infection in outbred mice within […]. Onychine was administered to infected mice by intraperitoneal injection 7 hrs post-inoculation. The vehicle used for administering the compound of the invention was a mixture consisting of 50% USP water, 40% propylene glycol and 10% absolute ethonol.

Candida albicans WH = assay: Minimum inhibitory concentration (MIC), twofold serial broth dilution assay, Candida albicans WH (clinical isolate); format: cell-based; conditions: 24 and 48 hours at 37°
Protocol: as §1

Candida albicans [2] = assay: Anticandidal activity, agar-well diffusion assay (zone of inhibition); format: cell-based; conditions: three test strains of Candida albicans; pure compounds at 1 mg/ml; 37° for 24 hours
Protocol: In vitro evaluation of the anticandidal activity of the inventive compound and compositions was carried out using the agar-well diffusion assay as follows:
Candida albicans NIH B311 used to induce experimental disseminated candidiasis was used for the initial qualitative evaluation of anticandidal activity. The organism was grown in Sabouraud-dextrose broth (SDB) for 14 hours at 37°, at which time the cells were harvested by centrifugation (4°, 2000 rpm, 3 min). After centrifugation, the cells were washed and suspended in sterile 0.9% saline to give a final concentration of 10^6 colony forming units (CFU) per ml (adjusted using a hemocytometer). Culture plates (15×100 mm) for the qualitative assay were prepared from 25 ml of Sabouraud-dextrose agar. Using sterile cotton swabs, the plates were streaked with the suspension (10^6 CFU/ml) of Candida albicans B311. Cylindrical plugs were removed from the agar plates by means of a sterile cork borer to produce wells with a diameter of approximately 11 mm. To the well was added 100 μl of solution or suspension of an extract, fraction, or pure compound. Crude extracts and fractions were tested at a concentration of 20 mg/ml, whereas pure compounds were tested at 1 mg/ml. […] Anticandidal activity was recorded as the width (in mm) of the zone of inhibition following incubation of the plates at 37° for 24 hours. […]

[3] = under varying conditions; cited from earlier work
Candida albicans [4] = conditions: reported in Journal of Natural Products, Vol. 50, No. 5, pp. 961-964, 1987; cited from earlier work

MIC (Candida albicans B311): 3.12 µg/mL (≈ 16 µM)
MIC (Candida albicans 10231): 1.56 µg/mL (≈ 7.99 µM)
MIC (Candida albicans WH): 25 µg/mL (≈ 128 µM)
SMILES: Cc1ccnc2c1C(=O)c1ccccc1-2 [Onychine, 1-methyl-4-azafluoren-9-one]
number of CFU of Candida albicans recovered from the kidneys versus vehicle treated control mice (Candida albicans [1]; 0.1 mg/kg intraperitoneal 7 hrs post-inoculation): significantly lower
% Reduction (Candida albicans [1]; 0.1 mg/kg intraperitoneal, n=8, P 0.047): 95.5%
% Reduction (Candida albicans [1]; 0.5 mg/kg intraperitoneal, n=7, P 0.082): 86.7%
CFU/g × 10^6 (range) (Candida albicans [1]; 0.1 mg/kg intraperitoneal 7 hrs post-inoculation, n=8, range 0.05-0.3, P 0.047): 0.17 CFU/g × 10^6
CFU/g × 10^6 (range) (Candida albicans [1]; 0.5 mg/kg intraperitoneal 7 hrs post-inoculation, n=7, range 0.11-1.05, P 0.082): 0.50 CFU/g × 10^6
zone of inhibition (Candida albicans [2]): remarkable zone of inhibition

SMILES: CC1C=CC=CC=CC=CC=CC=CC=CC(OC2OC(C)C(O)C(N)C2O)CC2OC(O)(CC(O)CC(O)C(O)CCC(O)CC(O)CC(=O)OC(C)C(C)C1O)CC(O)C2C(=O)O (centres unmarked) [amphotericin-B]
side effects in humans [3]: fever, anorexia, nausea and vomiting, diarrhea, muscle and joint pain, phlebitis and thiophlebitis, anemia, abnormal renal function, anuria, cardiovascular distress, hypertension and hypotension

SMILES: c1ccc2c(c1)-c1nccc3ccnc-2c13 [eupolauridine]
anticandidal properties (Candida albicans [4]): possibly remarkable anticandidal properties
